Experimental data reported in US10377755B2, “BCL-2 inhibitors” (Newave Pharmaceutical Inc., priority 2016, dated 2019).
pIC50, pKi: −log10 of the molar value. Blank lines part the entries; values can stand above or below the molecule they belong to.

Columns and labels:
H146 = experiment: In vitro anti-proliferation assay (ATPlite) in BCL-XL-dependent small cell lung cancer cell line H146; assay type: cell-based; details: for pIC50: Homo sapiens, NCI-H146, about 72 hours, 5% FBS
Procedure: (§1) Cell antiproliferation is assayed by PerkinElmer ATPlite™ Luminescence Assay System. Briefly, the various test cancer cell lines are plated at a density of about 1×10^4 cells per well in Costar 96-well plates, and are incubated with different concentrations of compounds for about 72 hours in medium supplemented with 5% FBS. One lyophilized substrate solution vial is then reconstituted by adding 5 mL of substrate buffer solution, and is agitated gently until the solution is homogeneous. About 50 μL of mammalian cell lysis solution is added to 100 μL of cell suspension per well of a microplate, and the plate is shaken for about five minutes in an orbital shaker at ˜700 rpm. This procedure is used to lyse the cells and to stabilize the ATP. Next, 50 μL substrate solution is added to the wells and microplate is shaken for five minutes in an orbital shaker at ˜700 rpm. Finally, the luminescence is measured by a PerkinElmer TopCount® Microplate Scintillation Counter. Such assays, carried out with a range of doses of test compounds, allow the determination of the cellular anti-antiproliferative IC50 of the compounds of the present invention.

Bcl-2 = Bcl-2 (Homo sapiens (Human), UniProt P10415); experiment: Bcl-2 competition binding (fluorescence polarization) assay; details: BH3 peptide, 3 hours incubation at room temperature
Procedure: Biological Example 1: Bcl-2 Competition Binding (Fluorescence Polarization) Assay
This binding assay was performed in 96-well plate and with each assay contained 15 and 30 nM of labeled peptide and purified Bcl-2 protein (purchased from R&D Systems, Inc). The assay buffer contained 20 mM Hepes (pH 7.0), 50 mM KCl, 5 mM MgCl2, 20 mM Na2MoO4, 0.1 mg/ml Bovine Gamma Globulin and 0.01% NP40. Compounds were diluted in DMSO and added to the final assay with concentration range from 20 uM to 2 nM. The polarization degree (mP) value was determined by BioTek Synergy II with background subtraction after 3 hours of incubation at room temperature. IC50 was calculated using Prism software with sigmoidal dose-response curve fitting. ABT-737 was used as reference compound. Such assays, carried out with a range of doses of test compounds, allow the determination of an approximate IC50 value.

RS4;11 = experiment: In vitro anti-proliferation assay (ATPlite) in BCL-2-dependent acute lymphoblastic leukemia cell line RS4;11; assay type: cell-based; details: Homo sapiens, about 72 hours, 5% FBS
Procedure: Biological Example 2: In Vitro Anti-Proliferation Assay in BCL-2-Dependent Acute Lymphoblastic Leukemia Cell Line RS4;11
as §1, with “invention. The following table lists the IC50 values of certain compounds of the invention.” for “invention.”

circulating platelets = details: clinical trial, patients; cited from earlier work
Bcl-w = Bcl-w (Homo sapiens (Human), UniProt Q92843); details: cited from earlier work
H345 xenograft = details: 100 mg/kg/day, H345 xenograft model; cited from earlier work
SCLC H146 cell line = details: read-out: IC50 against SCLC H146 cell line; cited from earlier work
[1] = tested on: xenograft models of small-cell lung cancer and acute lymphoblastic leukemia; details: single agent; cited from earlier work
[2] = cited from earlier work
[3] = cited from earlier work; remark: listed apart in the source

Sequence of Bcl-2 (P10415 whole entry): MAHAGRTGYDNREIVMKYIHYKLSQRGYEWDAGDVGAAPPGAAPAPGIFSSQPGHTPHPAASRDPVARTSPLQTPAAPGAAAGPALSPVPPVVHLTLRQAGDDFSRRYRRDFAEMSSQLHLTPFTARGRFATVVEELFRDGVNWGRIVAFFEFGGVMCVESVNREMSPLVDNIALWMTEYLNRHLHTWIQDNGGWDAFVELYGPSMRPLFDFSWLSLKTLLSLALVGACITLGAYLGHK
Sequence of Bcl-w (Q92843 whole entry): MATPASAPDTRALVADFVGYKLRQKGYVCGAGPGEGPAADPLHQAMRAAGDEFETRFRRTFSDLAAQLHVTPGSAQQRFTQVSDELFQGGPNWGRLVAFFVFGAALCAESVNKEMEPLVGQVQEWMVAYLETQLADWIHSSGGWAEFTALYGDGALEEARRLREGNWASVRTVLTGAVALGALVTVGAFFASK

BCL-2 selectivity concluded from H146 IC50 (H146; BCL-XL dependent cell line H146): BCL-2 selective inhibitor | pIC50 (H146): < 5.70 | pIC50 (Bcl-2): > 8.00 | pIC50 (RS4;11): > 7.82
Compound: CC1(C)CCC(CN2CCN(c3ccc(C(=O)NS(=O)(=O)c4ccc(NCC5CCOCC5)c([N+](=O)[O-])c4)c(-n4ncc5nc6[nH]ccc6cc54)c3)CC2)=C(c2ccc(Cl)cc2)C1 [Example 4, 4-(4-((4′-chloro-5,5-dimethyl-3,4,5,6-tetrahydro-[1,1′-biphenyl]-2-yl)methyl)piperazin-1-yl)-N-((3-nitro-4-(((tetrahydro-2H-pyran-4-yl)methyl)amino)phenyl)sulfonyl)-2-(pyrazolo[4,3-b]pyrrolo[3,2-e]pyridin-1(5H)-yl)benzamide]

pIC50 (H146): < 5.70 | pIC50 (Bcl-2): > 8.00 | pIC50 (RS4;11): > 7.82
Compound: CC1(C)CCC(CN2CCN(c3ccc(C(=O)NS(=O)(=O)c4ccc(NCC5(F)CCOCC5)c([N+](=O)[O-])c4)c(-n4ncc5nc6[nH]ccc6cc54)c3)CC2)=C(c2ccc(Cl)cc2)C1 [Example 12, 4-(4-((4′-chloro-5,5-dimethyl-3,4,5,6-tetrahydro-[1,1′-biphenyl]-2-yl)methyl)piperazin-1-yl)-N-((4-(((4-fluorotetrahydro-2H-pyran-4-yl)methyl)amino)-3-nitrophenyl)sulfonyl)-2-(pyrazolo[4,3-b]pyrrolo[3,2-e]pyridin-1(5H)-yl)benzamide]

pIC50 (Bcl-2): > 8.00
Compound: CN1CCC(F)(CNc2ccc(S(=O)(=O)NC(=O)c3ccc(N4CCN(CC5=C(c6ccc(Cl)cc6)CC(C)(C)CC5)CC4)cc3-n3ncc4nc5[nH]ccc5cc43)cc2[N+](=O)[O-])CC1 [Example 16, 4-(4-((4′-chloro-5,5-dimethyl-3,4,5,6-tetrahydro-[1,1′-biphenyl]-2-yl)methyl)piperazin-1-yl)-N-((4-(((4-fluoro-1-methylpiperidin-4-yl)methyl)amino)-3-nitrophenyl)sulfonyl)-2-(pyrazolo[4,3-b]pyrrolo[3,2-e]pyridin-1(5H)-yl)benzamide]

pIC50 (Bcl-2): > 8.00
Compound: CN1CCC(CNc2ccc(S(=O)(=O)NC(=O)c3ccc(N4CCN(CC5=C(c6ccc(Cl)cc6)CC(C)(C)CC5)CC4)cc3-n3ncc4nc5[nH]ccc5cc43)cc2[N+](=O)[O-])CC1 [Example 13, 4-(4-((4′-chloro-5,5-dimethyl-3,4,5,6-tetrahydro-[1,1′-biphenyl]-2-yl)methyl)piperazin-1-yl)-N-((4-(((1-methylpiperidin-4-yl)methyl)amino)-3-nitrophenyl)sulfonyl)-2-(pyrazolo[4,3-b]pyrrolo[3,2-e]pyridin-1(5H)-yl)benzamide]

pIC50 (Bcl-2): > 8.00
Compound: CC1(C)CCC(CN2CCN(c3ccc(C(=O)NS(=O)(=O)c4ccc(NCC5(F)CCN(C6COC6)CC5)c([N+](=O)[O-])c4)c(-n4ncc5nc6[nH]ccc6cc54)c3)CC2)=C(c2ccc(Cl)cc2)C1 [Example 14, 4-(4-((4′-chloro-5,5-dimethyl-3,4,5,6-tetrahydro-[1,1′-biphenyl]-2-yl)methyl)piperazin-1-yl)-N-((4-(((4-fluoro-1-(oxetan-3-yl)piperidin-4-yl)methyl)amino)-3-nitrophenyl)sulfonyl)-2-(pyrazolo[4,3-b]pyrrolo[3,2-e]pyridin-1(5H)-yl)benzamide]

Continued, molecule first:

Compound: CC1(C)CCC(c2ccc(Cl)cc2)=C(CN2CCN(c3ccc(C(=O)NS(=O)(=O)c4ccc(N[C@H](CCN5CCOCC5)CSc5ccccc5)c(S(=O)(=O)C(F)(F)F)c4)cc3)CC2)C1 [ABT-263]
pIC50 (H146): 7.22 | effect on number of circulating platelets (circulating platelets): rapid, concentration-dependent decrease | pKi (Bcl-w): ≥ 9.00 | TGI (H345 xenograft): 80% | treated tumors indicating at least a 50% reduction in tumor volume (H345 xenograft): 20% | pIC50 (SCLC H146 cell line): 6.96 | tumor response, oral administration alone [1]: complete tumor regressions

Compound: CC1(C)CCC(CN2CCN(c3ccc(C(=O)NS(=O)(=O)c4ccc(SCC5CCOCC5)c([N+](=O)[O-])c4)c(-n4ncc5nc6[nH]ccc6cc54)c3)CC2)=C(c2ccc(Cl)cc2)C1 [Example 11, 4-(4-((4′-chloro-5,5-dimethyl-3,4,5,6-tetrahydro-[1,1′-biphenyl]-2-yl)methyl)piperazin-1-yl)-N-((3-nitro-4-(((tetrahydro-2H-pyran-4-yl)methyl)thio)phenyl)sulfonyl)-2-(pyrazolo[4,3-b]pyrrolo[3,2-e]pyridin-1(5H)-yl)benzamide]
pIC50 (Bcl-2): > 8.00

Compound: CC1(C)CCC(CN2CCN(c3ccc(C(=O)NS(=O)(=O)c4ccc(OCC5(F)CCN(C6COC6)CC5)c([N+](=O)[O-])c4)c(-n4ncc5nc6[nH]ccc6cc54)c3)CC2)=C(c2ccc(Cl)cc2)C1 [Example 17, 4-(4-((4′-chloro-5,5-dimethyl-3,4,5,6-tetrahydro-[1,1′-biphenyl]-2-yl)methyl)piperazin-1-yl)-N-((4-((4-fluoro-1-(oxetan-3-yl)piperidin-4-yl)methoxy)-3-nitrophenyl)sulfonyl)-2-(pyrazolo[4,3-b]pyrrolo[3,2-e]pyridin-1(5H)-yl)benzamide]
pIC50 (Bcl-2): > 8.00

Compound: CC1(C)CCC(CN2CCN(c3ccc(C(=O)NS(=O)(=O)c4ccc(NC[C@@H]5CN(C6COC6)CCO5)c([N+](=O)[O-])c4)c(-n4ncc5nc6[nH]ccc6cc54)c3)CC2)=C(c2ccc(Cl)cc2)C1 [Example 15, (R)-4-(4-((4′-chloro-5,5-dimethyl-3,4,5,6-tetrahydro-[1,1′-biphenyl]-2-yl)methyl)piperazin-1-yl)-N-((3-nitro-4-(((4-(oxetan-3-yl)morpholin-2-yl)methyl)amino)phenyl)sulfonyl)-2-(pyrazolo[4,3-b]pyrrolo[3,2-e]pyridin-1(5H)-yl)benzamide]
pIC50 (Bcl-2): > 8.00

Compound: CC1(C)CCC(CN2CCN(c3ccc(C(=O)NS(=O)(=O)c4ccc(N5CCOCC5)c([N+](=O)[O-])c4)c(-n4ncc5nc6[nH]ccc6cc54)c3)CC2)=C(c2ccc(Cl)cc2)C1 [Example 8, 4-(4-((4′-chloro-5,5-dimethyl-3,4,5,6-tetrahydro-[1,1′-biphenyl]-2-yl)methyl)piperazin-1-yl)-N-((4-morpholino-3-nitrophenyl)sulfonyl)-2-(pyrazolo[4,3-b]pyrrolo[3,2-e]pyridin-1(5H)-yl)benzamide]
pIC50 (Bcl-2): > 8.00

Compound: CC1(C)CCC(CN2CCN(c3ccc(C(=O)NS(=O)(=O)c4ccc(OCC5CCOCC5)c([N+](=O)[O-])c4)c(-n4ncc5nc6[nH]ccc6cc54)c3)CC2)=C(c2ccc(Cl)cc2)C1 [Example 18, 4-(4-((4′-chloro-5,5-dimethyl-3,4,5,6-tetrahydro-[1,1′-biphenyl]-2-yl)methyl)piperazin-1-yl)-N-((3-nitro-4-((tetrahydro-2H-pyran-4-yl)methoxy)phenyl)sulfonyl)-2-(pyrazolo[4,3-b]pyrrolo[3,2-e]pyridin-1(5H)-yl)benzamide]
pIC50 (Bcl-2): > 8.00

Compound: CN(C)CC[C@H](CSc1ccccc1)Nc1ccc(S(=O)(=O)NC(=O)c2ccc(N3CCN(Cc4ccccc4-c4ccc(Cl)cc4)CC3)cc2)cc1[N+](=O)[O-] [ABT-737]
aqueous solubility [2]: low | oral bioavailability [3]: not orally bioavailable
